Results: publication PMC4835877, “HM71224, a novel Bruton’s tyrosine kinase inhibitor, suppresses B cell and monocyte activation and ameliorates arthritis in a mouse model: a potential drug for rheumatoid arthritis” (Arthritis Research & Therapy, 2016)
Like-named read-outs stand apart in the source and are kept apart here.

Experiments:
[1] = system: EGFR-overexpressed A431 cells; test: Cellular growth of EGFR-overexpressed A431 cells; assay type: cell-based
[2] = system: activated primary human B cells; test: Surface activation marker expression by activated B cells (flow cytometry); assay type: cell-based; conditions: B-cell, anti-IgM F(ab')2 for 24 h
Method: Human PBMCs (10^6 cells/mL) were allowed to rest at 37 °C for 2 h. […] To examine changes in the expression of surface activation markers, cells were stained with anti-CD3-FITC (SK7; BD Biosciences), anti-CD19-PE (HIB19; BD Biosciences), anti-CD40-PE-Cy7 (5C3; BD Biosciences), anti-CD69-V450 (FN50; BD Biosciences), and anti-CD86-PerCP-Cy5.5 (2331 (FUN-1); BD Biosciences) antibodies.

BTK = BTK (Homo sapiens, UniProt Q06187); test: Btk occupancy in human PBMCs (biotinylated probe); assay type: cell-based; conditions: primary human cells (PBMCs), 100 nM
Method: After treatment with HM71224, cells were lysed and then incubated for 1 h with 1 μM of biotinylated probe (HM71224 derivative). The lysed cells were loaded into streptavidin-coated wells and then incubated with an anti-Btk antibody (1:1000; clone number D3H5, Cell signaling Technology, Danvers, MA, USA) for 1 h, followed by a secondary HRP-conjugated antibody (1:10000; EMD Millipore Corporation, Billerica, MA, USA) at room temperature for 1 h. After washing, 100 μL of colorimetric solution (R&D systems, Minneapolis, MN, USA) was added, and the reaction was stopped 30 minutes later by addition of 100 μL of sulfuric acid (0.2 moles/L). The plate was read with the absorbance reader at 450 nm.
To measure Btk occupancy by immunoprecipitation (IP), biotinylated HM71224 probes were preincubated with cell lysates for 1 h at 4 °C. Streptavidin-coated beads were then added, and the mixture was incubated overnight at 4 °C. Immunoblotting was then performed, and band density was measured using MultiGauge V3.0 software (FUJI FILM, Tokyo, Japan). Untreated biotinylated probes were set at 100 %.

[3] = system: murine bone marrow-derived macrophages; test: Osteoclast formation from murine BMMs (TRAP staining); assay type: cell-based, mouse; conditions: M-CSF and RANKL, 4 days
[4] = system: DBA/1 J mice with collagen-induced arthritis; test: Collagen-induced arthritis (CIA) model; assay type: in vivo, mouse
Method: All animal experimental protocols were approved by the animal care and use committee of the Hanmi Research Center, and performed in accordance with approved guidelines. Male DBA/1 J mice (9 weeks old; n = 7 per group) were immunized with an emulsion of Complete Freund’s Adjuvant and bovine type II collagen (CII) (total volume, 0.07 mL) via intradermal injection at the base of the tail (day 0). Three weeks later, the mice received a booster immunization comprising bovine CII emulsified in Incomplete Freund’s Adjuvant. […] The arthritis score and body weight were measured three times per week for 2 weeks after administration of the drugs (Additional file 1: Figure S1). The arthritis score was determined by grading each paw from 0 to 4 based on erythema, swelling, and flexion of the joint and was expressed as the sum of the scores of all four paws. Serum levels of IL-6 were measured by Luminex analysis in a bead-based immunoassay (EMD Millipore Corporation). Serum levels of anti-CII and total IgG were measured by ELISA (Chondrex, Seattle, WA, USA; Bethyl Laboratories, Montgomery, TX, USA).
Micro-CT of the hind limbs was performed using a Siemens Inveon Micro-CT/PET scanner (Siemens Medical Solutions, Knoxville, TN, USA).
The hind legs of each mouse were fixed with 10 % formalin, decalcified in 5 % formic acid, and embedded in paraffin. Sections were then cut and stained with hematoxylin and eosin (H&E). The bone erosion index was scored from 0 to 4 according to the following criteria: 0 = no erosion, 1 = mild (focal subchondral erosion), 2 = moderate (multiple subchondral erosions), 3 = high (as above and focal erosion of talus), and 4 = maximum (multiple erosions of tarsal and metatarsal bones).
Figure S1. Experiment design of collagen induced arthritis. Untreated DBA/1J mice (n=7) served as healthy controls (Ctrl). DBA/1J mice (n= 56) were immunized Day 0 and day 21. On day 10 after boosting (i.e. day 31), the induction of CIA was evaluated. […] Immunized mice (n=42) were divided into 6 groups (n=7 in each group). […] CIA, collagen induced arthritis.

JAK3 = JAK3 (Homo sapiens, UniProt P52333); test: biochemical
Sequence of JAK3 (P52333 whole entry): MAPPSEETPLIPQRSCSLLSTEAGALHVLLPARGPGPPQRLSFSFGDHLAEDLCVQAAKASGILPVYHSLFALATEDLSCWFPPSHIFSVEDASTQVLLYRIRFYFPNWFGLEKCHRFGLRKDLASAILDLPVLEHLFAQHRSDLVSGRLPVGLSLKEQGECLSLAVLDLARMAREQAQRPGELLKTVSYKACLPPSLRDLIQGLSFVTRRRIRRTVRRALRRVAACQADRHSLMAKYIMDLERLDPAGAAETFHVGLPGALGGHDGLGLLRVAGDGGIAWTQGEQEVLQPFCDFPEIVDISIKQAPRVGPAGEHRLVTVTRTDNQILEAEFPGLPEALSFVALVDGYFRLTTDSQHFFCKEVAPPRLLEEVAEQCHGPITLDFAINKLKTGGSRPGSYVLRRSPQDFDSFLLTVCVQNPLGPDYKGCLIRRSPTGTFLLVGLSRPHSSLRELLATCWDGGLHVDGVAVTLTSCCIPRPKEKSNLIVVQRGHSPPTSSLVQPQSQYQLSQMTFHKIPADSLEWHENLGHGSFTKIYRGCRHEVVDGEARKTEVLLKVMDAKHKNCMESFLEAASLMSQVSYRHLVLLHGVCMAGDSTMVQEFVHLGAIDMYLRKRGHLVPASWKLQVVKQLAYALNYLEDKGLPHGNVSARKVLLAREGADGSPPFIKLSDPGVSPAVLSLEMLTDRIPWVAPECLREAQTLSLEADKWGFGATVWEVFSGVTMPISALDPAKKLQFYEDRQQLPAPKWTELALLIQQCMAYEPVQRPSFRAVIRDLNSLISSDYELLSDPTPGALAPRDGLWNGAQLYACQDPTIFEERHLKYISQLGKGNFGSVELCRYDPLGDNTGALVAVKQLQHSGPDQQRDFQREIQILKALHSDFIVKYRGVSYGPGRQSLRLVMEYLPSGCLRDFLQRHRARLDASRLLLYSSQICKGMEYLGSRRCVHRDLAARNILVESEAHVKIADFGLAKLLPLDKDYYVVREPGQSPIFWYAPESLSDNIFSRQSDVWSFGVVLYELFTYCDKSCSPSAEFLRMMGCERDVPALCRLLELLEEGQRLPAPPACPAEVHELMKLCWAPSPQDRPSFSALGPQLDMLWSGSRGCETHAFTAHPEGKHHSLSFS

Sequence of BTK (Q06187 whole entry): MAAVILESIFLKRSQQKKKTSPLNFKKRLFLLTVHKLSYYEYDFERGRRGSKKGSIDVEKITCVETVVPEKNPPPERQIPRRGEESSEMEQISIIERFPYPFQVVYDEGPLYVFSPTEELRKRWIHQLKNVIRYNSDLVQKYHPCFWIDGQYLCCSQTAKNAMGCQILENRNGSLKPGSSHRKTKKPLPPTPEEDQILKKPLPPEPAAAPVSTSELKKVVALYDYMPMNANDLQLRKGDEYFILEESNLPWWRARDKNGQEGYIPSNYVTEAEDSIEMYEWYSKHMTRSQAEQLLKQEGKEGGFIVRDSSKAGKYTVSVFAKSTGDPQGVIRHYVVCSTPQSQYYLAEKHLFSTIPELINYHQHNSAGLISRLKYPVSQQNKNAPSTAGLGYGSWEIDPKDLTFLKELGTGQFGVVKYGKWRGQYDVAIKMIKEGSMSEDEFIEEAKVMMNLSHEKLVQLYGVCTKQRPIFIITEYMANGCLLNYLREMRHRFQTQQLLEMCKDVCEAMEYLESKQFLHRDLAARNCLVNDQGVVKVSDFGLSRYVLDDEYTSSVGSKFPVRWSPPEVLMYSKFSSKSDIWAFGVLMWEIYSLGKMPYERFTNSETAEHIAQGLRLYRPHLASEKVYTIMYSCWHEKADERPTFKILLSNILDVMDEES

SMILES: C=CC(=O)Nc1cccc(Oc2nc(Nc3ccc(N4CCN(C)CC4)cc3)nc3ccoc23)c1 [HM71224]
- GI50 ([1]; Homo sapiens, A-431, read-out: GI50, concentration to inhibit 50 % of cellular growth, EGFR-overexpressed A431 cells): 1000 nM
- GI50 ([1]; read-out: GI50, concentration to inhibit 50 % of cellular growth, EGFR-overexpressed A431 cells): > 1000 nM
- IC50 ([2]; read-out: IC50, surface expression of CD40): 4.2 nM
- IC50 ([2]; read-out: IC50, surface expression of CD69): 4.2 nM
- IC50 ([2]; read-out: IC50, surface expression of CD86): 7.7 nM
- Btk sites occupied (BTK): > 70%
- Osteoclast formation from murine BMMs [3]: inhibited osteoclast formation from murine BMMs
- Levels of circulating anti-collagen antibodies vs untreated group ([4]; CIA mice): significantly lower
- Serum IL-6 levels vs untreated group ([4]; CIA mice): significantly lower
- Total IgG level ([4]; CIA mice): tended to be lower
- Erosive bone changes and bone loss ([4]; CIA mice, H&E section): markedly reduced erosive bone changes and prevented bone loss
- Weight loss ([4]; dose of 3 mg/kg or higher): prevented weight loss
- AS, arthritis score ([4]; oral 1mg/kg once a day, D0): 1.1±0.7
- Wt, weight ([4]; oral 1mg/kg once a day, D0): 22.7±0.5 gram
- AS, arthritis score ([4]; oral 1mg/kg once a day, D1): 1.1±0.7
- Wt, weight ([4]; oral 1mg/kg once a day, D1): 22.5±0.5 gram
- AS, arthritis score ([4]; oral 1mg/kg once a day, D4): 1.9±0.9
- Wt, weight ([4]; oral 1mg/kg once a day, D4): 22.2±0.6 gram
- AS, arthritis score ([4]; oral 1mg/kg once a day, D6): 2.1±1.1
- Wt, weight ([4]; oral 1mg/kg once a day, D6): 21.9±0.5 gram
- AS, arthritis score ([4]; oral 1mg/kg once a day, D8): 2.9±1.1
- Wt, weight ([4]; oral 1mg/kg once a day, D8): 22.1±0.5 gram
- AS, arthritis score ([4]; oral 1mg/kg once a day, D12): 5.0±1.0
- Wt, weight ([4]; oral 1mg/kg once a day, D12): 21.6±0.5 gram
- AS, arthritis score ([4]; oral 1mg/kg once a day, D13): 6.6±0.7
- Wt, weight ([4]; oral 1mg/kg once a day, D13): 21.4±0.4 gram
- AS, arthritis score ([4]; oral 1mg/kg once a day, D15): 6.6±0.9
- Wt, weight ([4]; oral 1mg/kg once a day, D15): 21.2±0.3 gram
- AS, arthritis score ([4]; oral 3mg/kg once a day, D0): 1.1±0.3
- Wt, weight ([4]; oral 3mg/kg once a day, D0): 22.7±0.4 gram
- AS, arthritis score ([4]; oral 3mg/kg once a day, D1): 1.3±0.7
- Wt, weight ([4]; oral 3mg/kg once a day, D1): 22.3±0.5 gram
- AS, arthritis score ([4]; oral 3mg/kg once a day, D4): 1.9±0.6
- Wt, weight ([4]; oral 3mg/kg once a day, D4): 22.2±0.4 gram
- AS, arthritis score ([4]; oral 3mg/kg once a day, D6): 1.9±0.6
- Wt, weight ([4]; oral 3mg/kg once a day, D6): 22.4±0.4 gram
- AS, arthritis score ([4]; oral 3mg/kg once a day, D8): 2.0±0.7
- Wt, weight ([4]; oral 3mg/kg once a day, D8): 22.5±0.4 gram
- AS, arthritis score ([4]; oral 3mg/kg once a day, D12): 3.1±0.9
- Wt, weight ([4]; oral 3mg/kg once a day, D12): 22.6±0.4 gram
- AS, arthritis score ([4]; oral 3mg/kg once a day, D13): 3.4±1.2
- Wt, weight ([4]; oral 3mg/kg once a day, D13): 22.6±0.4 gram
- AS, arthritis score ([4]; oral 3mg/kg once a day, D15): 3.4±1.4
- Wt, weight ([4]; oral 3mg/kg once a day, D15): 22.5±0.4 gram
- AS, arthritis score ([4]; oral 10mg/kg once a day, D0): 1.1±0.6
- Wt, weight ([4]; oral 10mg/kg once a day, D0): 23.0±0.2 gram
- AS, arthritis score ([4]; oral 10mg/kg once a day, D1): 0.9±0.3
- Wt, weight ([4]; oral 10mg/kg once a day, D1): 22.8±0.3 gram
- AS, arthritis score ([4]; oral 10mg/kg once a day, D4): 0.4±0.2
- Wt, weight ([4]; oral 10mg/kg once a day, D4): 23.2±0.3 gram
- AS, arthritis score ([4]; oral 10mg/kg once a day, D6): 0.6±0.4
- Wt, weight ([4]; oral 10mg/kg once a day, D6): 23.0±0.3 gram
- AS, arthritis score ([4]; oral 10mg/kg once a day, D8): 0.6±0.3
- Wt, weight ([4]; oral 10mg/kg once a day, D8): 23.2±0.3 gram
- AS, arthritis score ([4]; oral 10mg/kg once a day, D12): 1.0±0.4
- Wt, weight ([4]; oral 10mg/kg once a day, D12): 23.5±0.3 gram
- AS, arthritis score ([4]; oral 10mg/kg once a day, D13): 0.7±0.4
- Wt, weight ([4]; oral 10mg/kg once a day, D13): 23.8±0.3 gram
- AS, arthritis score ([4]; oral 10mg/kg once a day, D15): 0.7±0.4
- Wt, weight ([4]; oral 10mg/kg once a day, D15): 23.9±0.3 gram
- AS, arthritis score ([4]; oral 30mg/kg once a day, D0): 1.1±0.5
- Wt, weight ([4]; oral 30mg/kg once a day, D0): 22.6±0.5 gram
- AS, arthritis score ([4]; oral 30mg/kg once a day, D1): 0.9±0.3
- Wt, weight ([4]; oral 30mg/kg once a day, D1): 22.0±0.5 gram
- AS, arthritis score ([4]; oral 30mg/kg once a day, D4): 0.3±0.2
- Wt, weight ([4]; oral 30mg/kg once a day, D4): 22.1±0.4 gram
- AS, arthritis score ([4]; oral 30mg/kg once a day, D6): 0.3±0.2
- Wt, weight ([4]; oral 30mg/kg once a day, D6): 22.1±0.4 gram
- AS, arthritis score ([4]; oral 30mg/kg once a day, D8): 0.4±0.2
- Wt, weight ([4]; oral 30mg/kg once a day, D8): 22.4±0.4 gram
- AS, arthritis score ([4]; oral 30mg/kg once a day, D12): 0.4±0.2
- Wt, weight ([4]; oral 30mg/kg once a day, D12): 22.5±0.4 gram
- AS, arthritis score ([4]; oral 30mg/kg once a day, D13): 0.4±0.3
- Wt, weight ([4]; oral 30mg/kg once a day, D13): 22.9±0.5 gram
- AS, arthritis score ([4]; oral 30mg/kg once a day, D15): 0.3±0.2
- Wt, weight ([4]; oral 30mg/kg once a day, D15): 22.8±0.4 gram
- Arthritis score vs untreated CIA mice ([4]; oral once a day for 2 weeks, P < 0.05 at 10 mg/kg, P < 0.01 at 30 mg/kg): lower arthritis scores than untreated CIA mice
- IC50 (JAK3): 14.6 nM
